From patent publication US20250152758A1, “PROBE FOR NUCLEAR MEDICAL TESTING” (The University of Tokyo, priority 2022, published 2025)

Key:
GGT = biological target: T1, GGT (Homo sapiens, UniProt P19440); test: Enzymatic reaction between gGlu-4^125I-FMA and GGT, HPLC with radiation detector; assay type: biochemical; conditions: 80 U/mL GGT, 37° C., 3.5 hours, radio-HPLC
T1 construct: purchased wako 307-50673
Protocol: The purified gGlu-4^125I-FMA was dissolved in DPBS(-) to prepare about 5 kBq/μL. The result of the radiation detector when 20 μL of DPBS(-) was added to 5 μL of this solution and the entire amount of 25 μL was injected into the analytical HPLC is shown in the upper left of FIG. 3. Here, the analysis conditions of HPLC are exactly the same as the conditions at the time of purification in FIG. 2.
For analysis of metabolites, 40 μL of a 100 U/mL GGT solution (final concentration: 80 U/mL) was added to 10 μL of the above gGlu-4^125I-FMA solution, and the mixture was stirred at 37° C. and 500 rpm for 3.5 hours using a shaker. The result of the radiation detector when a half amount 25 μL from this reaction liquid was injected for analysis is shown in the upper left of FIG. 3. The lower right is a result of extracting 254 nm with PDA when a cold preparation of 2-amino-5-iodobenzylalcohol obtained by producing azaquinone methide after gGlu-4^125I-FMA was metabolized by GGT, and reacting azaquinone methide with water that would be the main nucleophile in this enzymatic reaction experiment was analyzed under the same analysis conditions.

[1] = tested on: SHIN3 (high GGT activity) cells; test: Intracellular uptake test in cells with high GGT activity, with or without GGT inhibitor GGsTop; assay type: cell-based
Protocol: (§1) Intracellular uptake of gGlu-4^125I-FMA was evaluated using cells with high or low GGT activity and a GGT inhibitor, GGsTop, by the procedure shown in FIG. 4.
(§2) First, SHIN3 (high GGT activity) and SKOV3 (low GGT activity) cells were seeded in 12 well culture plates and incubated for 1 day. Next, the medium of each well was changed to fresh medium containing gGlu-4^125I-FMA (and GGsTop), and the cells were incubated for 6 hours. Thereafter, the medium was removed and the plates were washed three times with PBS(-). Then, the cells were collected, radioactivity from the cells was measured with a Y-counter, and the number of cells was counted.
(§3) Since there was almost no radioactivity in the third wash fraction and the radioactivity from the cell fraction was much higher than that, it is considered that the radioactivity from the cell fraction is derived from the nuclide retained in the cell.

[2] = tested on: SKOV3 (low GGT activity) cells; test: Intracellular uptake test in cells with low GGT activity; assay type: cell-based; conditions: SKOV3, 6 hours incubation, gamma counter
Protocol: as §1, §2, §3

[3] = tested on: A549 tumor (high GGT activity); test: Intratumoral administration to subcutaneous tumor model mouse, SPECT/CT imaging (high GGT tumor); assay type: in vivo; conditions: about 150 kBq intratumoral, images 30 minutes, 2 hours, 5 hours
Protocol: (§4) On the basis of the results of Example 2, a probe was intratumorally administered to a subcutaneous tumor model mouse, and SPECT/CT imaging was performed.
(§5) A model mouse was prepared in which A549 cells with high GGT activity were transplanted subcutaneously on the left side of the body, and H226 cells with low GGT activity were transplanted subcutaneously on the right side of the body. Into subcutaneous tumors of A549 (high GGT activity, left side) and H226 (low GGT activity, right side), gGlu-4^125I-FMA of about 150 kBq in 30 μL PBS(-) was directly administered. SPECT/CT images were acquired 30 minutes, 2 hours, and 5 hours after administration.

[4] = tested on: H226 tumor (low GGT activity); test: Intratumoral administration to subcutaneous tumor model mouse, SPECT/CT imaging (low GGT tumor); assay type: in vivo; conditions: about 150 kBq intratumoral, images 30 minutes, 2 hours, 5 hours
Protocol: as §4, §5

[5] = tested on: A549-luc-C8 cells with high GGT activity (peritoneal dissemination); test: Visualization of peritoneal metastasis by intraperitoneal administration, SPECT/CT and autoradiography; assay type: in vivo, mouse; conditions: for signals in the abdomen (SPECT/CT): 5 hours after administration
Protocol: Next, according to the procedure shown in the left figure of FIG. 7, peritoneal dissemination model mice were prepared, and gGlu-4^125I-FMA was intraperitoneally administered. First, A549-luc-C8 cells with high GGT activity were transplanted into the abdominal cavity of the mouse and bred for 1 week. Luciferin potassium was intraperitoneally administered, and tumor growth was confirmed by luminescence imaging using IVIS (right figure in FIG. 7). Next, gGlu-4^125I-FMA was intraperitoneally administered (to 3 MBq) to the peritoneal model mouse and a tumor-free mouse, and SPECT/CT imaging was performed by NanoSPECT/CT. […] They are shown as Maximum Intensity Projection (MIP) images.
In addition, the peritoneal dissemination model mouse in the left figure was dissected after 5 hours of imaging, and the intestines and mesentery were taken out and imaged by autoradiography (ARG) (FIG. 9). […] From this, it is considered that the signals scattered in the abdominal cavity in the SPECT/CT on the left of FIG. 8 correspond to the peritoneal dissemination.

T1 sequence (P19440 whole entry, species assumed): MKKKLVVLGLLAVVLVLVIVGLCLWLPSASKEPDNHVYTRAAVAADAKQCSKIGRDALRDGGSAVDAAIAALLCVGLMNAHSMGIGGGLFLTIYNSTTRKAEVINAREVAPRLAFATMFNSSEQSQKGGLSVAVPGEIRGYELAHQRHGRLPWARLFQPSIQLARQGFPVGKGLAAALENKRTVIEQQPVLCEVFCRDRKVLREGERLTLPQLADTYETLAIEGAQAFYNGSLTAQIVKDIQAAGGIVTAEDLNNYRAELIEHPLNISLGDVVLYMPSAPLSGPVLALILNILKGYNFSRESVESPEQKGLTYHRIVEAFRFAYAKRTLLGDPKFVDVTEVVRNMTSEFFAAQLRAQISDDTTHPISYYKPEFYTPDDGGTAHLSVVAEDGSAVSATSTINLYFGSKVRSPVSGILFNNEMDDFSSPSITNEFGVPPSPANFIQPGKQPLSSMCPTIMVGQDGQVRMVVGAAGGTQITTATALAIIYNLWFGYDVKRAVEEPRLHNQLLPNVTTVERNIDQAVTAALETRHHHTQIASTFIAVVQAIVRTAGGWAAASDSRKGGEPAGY

## N[C@@H](CCC(=O)Nc1ccc([125I])cc1CF)C(=O)O [gGlu-4^125I-FMA]
GGT
  metabolite formed on reaction with GGT: converted to 2-amino-5-iodobenzylalcohol
[1]; SHIN3, 6 hours incubation, GGsTop as inhibitor, gamma counter, standardized by number of cells
  uptake rate without inhibitor compared with the case of adding an inhibitor: about 30 times
[1]; three washes with PBS(-)
  retention of incorporated probe in the cell after wash operation: remains in the cell at a certain ratio and withstands washout
[2]
  uptake rate: suppressed to be low
[3]
  radioactivity in tumor (SPECT/CT): clearly remains
[4]
  radioactivity in tumor (SPECT/CT): rapidly attenuated
[5]; i.p., after 30 minutes
  clearance of probe from abdominal cavity (SPECT/CT): almost disappeared from the abdominal cavity
  signals in the bladder (SPECT/CT): many signals gathered in the bladder
[5]; peritoneal dissemination model mouse dissected after 5 hours of imaging
  uptake in intestines and mesentery by autoradiography (ARG): uptake of radionuclides was observed in agreement with minute peritoneal dissemination
[5]; peritoneal dissemination model mouse, i.p.
  signals in the abdomen (SPECT/CT): only scattered signals remained in the abdomen
[5]; tumor-free mouse, i.p.
  signals in the abdomen (SPECT/CT): not observed
